We go through 26 compounds from patent US10414763B2 (CANCER RESEARCH TECHNOLOGY LIMITED, priority 2014, dated 2019).

Usually IC50 stands for the point on the concentration scale where inhibition reaches its midpoint.

This assay deals with T1, full-length human PKCι (Homo sapiens, UniProt P41743).
T1 construct: Recombinant, full-length human PKCι expressed in Sf21 insect cells is also commercially available; purchased EMD Millipore; host or cells: Sf21 insect cells (baculovirus)
T1 sequence (P41743 1-596): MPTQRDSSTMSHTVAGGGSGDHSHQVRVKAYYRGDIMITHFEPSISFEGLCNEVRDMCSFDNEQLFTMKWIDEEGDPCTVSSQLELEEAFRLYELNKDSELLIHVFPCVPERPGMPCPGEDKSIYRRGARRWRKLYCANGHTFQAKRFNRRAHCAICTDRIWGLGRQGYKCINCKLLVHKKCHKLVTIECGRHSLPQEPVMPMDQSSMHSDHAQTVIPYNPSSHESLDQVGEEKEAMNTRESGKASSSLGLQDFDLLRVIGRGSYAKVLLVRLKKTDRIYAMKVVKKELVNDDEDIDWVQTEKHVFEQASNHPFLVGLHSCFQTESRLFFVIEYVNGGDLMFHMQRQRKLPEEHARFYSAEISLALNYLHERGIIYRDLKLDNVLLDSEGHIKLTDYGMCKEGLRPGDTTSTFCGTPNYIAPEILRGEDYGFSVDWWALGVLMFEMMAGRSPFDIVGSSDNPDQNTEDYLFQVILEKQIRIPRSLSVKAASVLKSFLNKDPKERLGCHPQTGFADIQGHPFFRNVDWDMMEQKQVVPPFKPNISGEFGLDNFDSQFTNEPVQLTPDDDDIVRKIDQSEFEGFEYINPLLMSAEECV
As to the kind of experiment: PKCι IC50 IMAP fluorescence polarisation assay, full-length enzyme, 150 μM ATP. Type of assay: biochemical. The conditions noted are these: read-out: IC50 in IMAP assay against full length PKCi at 150 μM ATP. An outline of the steps: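 IMAP fluorescence polarisation kinase assay: 15 pM baculovirus-expressed human PKCiota with 100 nM FAM-pseudosubstrate peptide and 150 μM ATP, 1 h at 25 °C. IMAP detection reagent then 2 h at 25 °C before FP measurement. Inhibition referenced to no-compound and no-enzyme controls for IC50 fitting.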
A general note: In fluorescence polarisation assays a small probe gives low polarisation when free and higher when bound to something large.

As for `Cc1ccc(-c2cc3c(-c4nc(N5CCNCC5)c5c(C6CC6)cncc5n4)ccnc3[nH]2)s1` [Example 41, 5-Cyclopropyl-2-[2-(5-methyl-thiophen-2-yl)-1H-pyrrolo[2,3-b]pyridin-4-yl]-4-piperazin-1-yl-pyrido[3,4-d]pyrimidine], the IC50 was below 100 nM.

For the compound `CC1(C)CNCCC1Nc1nc(-c2ccnc(Nc3nccc4ccccc34)c2)nc2cncc(C3CCC3)c12` (centres unmarked) [Example 89, {5-Cyclobutyl-2-[2-(isoquinolin-1-ylamino)-pyridin-4-yl]-pyrido[3,4-d]pyrimidin-4-yl}-(3,3-dimethyl-piperidin-4-yl)-amine], the IC50 is below 100 nM.

Turning to `Fc1cc(F)c(Nc2cc(-c3nc(NC45CCNCC4C5)c4c(C5CCC5)cncc4n3)ccn2)nc1F` (centres unmarked) [Example 208, (3-Aza-bicyclo[4.1.0]hept-6-yl)-{5-cyclobutyl-2-[2-(3,5,6-trifluoro-pyridin-2-ylamino)-pyridin-4-yl]-pyrido[3,4-d]pyrimidin-4-yl}-amine], the IC50 is below 100 nM. The result for `Fc1cccc(F)c1Nc1cc(-c2nc(N3CCOC4CNCC43)c3c(C4CCC4)cncc3n2)ccn1` (centres unmarked) [Example 258, {4-[5-Cyclobutyl-4-(hexahydro-pyrrolo[3,4-b]-1,4-oxazin-4-yl)-pyrido[3,4-d]pyrimidin-2-yl]-pyridin-2-yl}-(2,6-difluoro-phenyl)-amine] reads below 100 nM; that for `Cc1cc2c(-c3nc(N4CC[C@H]5NCCC[C@H]54)c4c(C5CC5)cncc4n3)ccnc2[nH]1` (racemic) [Example 83, (±)-5-Cyclopropyl-2-(2-methyl-1H-pyrrolo[2,3-b]pyridin-4-yl)-4-(3,7-cis)-octahydro-pyrrolo [3,2-b]pyridin-1-yl-pyrido[3,4-d]pyrimidine], below 100 nM.

Take `CN(c1nc(-c2ccnc3[nH]c(Sc4ccccc4)cc23)nc2cncc(C3CC3)c12)C1CCNCC1` [Example 15, [5-Cyclopropyl-2-(2-phenylsulfanyl-1H-pyrrolo[2,3-b]pyridin-4-yl)-pyrido[3,4-d]pyrimidin-4-yl]-methyl-piperidin-4-yl amine]: the IC50 was below 100 nM. As for `OC1CNCCC(Nc2nc(-c3ccnc4[nH]c5ccccc5c34)nc3cncc(C(F)(F)F)c23)C1` (centres unmarked) [Example 219, 5-[2-(9H-Pyrido[2,3-b]indol-4-yl)-5-trifluoromethyl-pyrido[3,4-d]pyrimidin-4-ylamino]-azepan-3-ol], the IC50 was below 100 nM. As for `FC(F)(F)c1cc2c(-c3nc(N4CC[C@H]5CNC[C@H]54)c4c(C5CC5)cncc4n3)ccnc2[nH]1` [Example 20, 5-Cyclopropyl-4-(3aS,6aS)-hexahydro-pyrrolo[3,4-b]pyrrol-1-yl-2-(2-trifluoromethyl-1H-pyrrolo[2,3-b]pyridin-4-yl)-pyrido[3,4-d]pyrimidine], the IC50 was below 100 nM. As to `Clc1ccc(Cl)c(-c2cc3c(-c4nc(N5CCNCC5)c5c(C6CC6)cncc5n4)ccnc3[nH]2)c1` [Example 46, 5-Cyclopropyl-2-[2-(2,5-dichloro-phenyl)-1H-pyrrolo[2,3-b]pyridin-4-yl]-4-piperazin-1-yl-pyrido[3,4-d]pyrimidine], the IC50 was below 100 nM. In the case of `C[C@@H]1CNCC[C@H]1Nc1nc(-c2ccnc(Nc3nc(F)cc(F)c3F)c2)nc2cncc(C3CC3)c12` (racemic) [Example 304, {5-Cyclopropyl-2-[2-(3,4,6-trifluoro-pyridin-2-ylamino)-pyridin-4-yl]-pyrido[3,4-d]pyrimidin-4-yl}-(rac-(3R,4R)-3-methyl-piperidin-4-yl)-amine], the IC50 was below 100 nM. Turning to `Fc1ccc(F)c(Nc2cc(-c3nc(NC45CCNCC4C5)c4c(C5CCC5)cncc4n3)ccn2)n1` (centres unmarked) [Example 209, (3-Aza-bicyclo[4.1.0]hept-6-yl)-{5-cyclobutyl-2-[2-(3,6-difluoro-pyridin-2-ylamino)-pyridin-4-yl]-pyrido[3,4-d]pyrimidin-4-yl}-amine], the IC50 was below 100 nM. As to `C[C@@H]1CNCC[C@H]1Nc1nc(-c2ccnc3[nH]c4ccccc4c23)nc2cncc(C(F)(F)F)c12` (racemic) [Example 352, (rac-(3R,4R)-3-Methyl-piperidin-4-yl)-[2-(9H-pyrido[2,3-b]indol-4-yl)-5-trifluoromethyl-pyrido[3,4-d]pyrimidin-4-yl]-amine], the IC50 is below 100 nM. Next, `C[C@H]1CNCC[C@@H]1Nc1nc(-c2ccnc3[nH]c(C(F)(F)F)cc23)nc2cncc(C3CCC3)c12` (racemic) [Example 262]: below 100 nM. Next, `c1ccc(Nc2cc(-c3nc(N4CCC5NCCCC54)c4c(C5CCC5)cncc4n3)ccn2)cc1` (centres unmarked) [Example 125, {4-[5-Cyclobutyl-4-(octahydro-pyrrolo[3,2-b]pyridin-1-yl)-pyrido[3,4-d]pyrimidin-2-yl]-pyridin-2-yl}-phenyl-amine]: below 100 nM. `CC1(C)CNCCC1Nc1nc(-c2ccnc(Nc3ncn(-c4ccccc4)n3)c2)nc2cncc(C3CC3)c12` (racemic) [Example 233, rac-{5-Cyclopropyl-2-[2-(1-phenyl-1H-1,2,4-triazol-3-ylamino)-pyridin-4-yl]-pyrido[3,4-d]pyrimidin-4-yl}-(3,3-dimethyl-piperidin-4-yl)-amine]: the IC50 is below 100 nM. On to `Clc1ccccc1-c1cc2c(-c3nc(N[C@H]4[C@@H]5CC[C@H]4CNC5)c4c(C5CC5)cncc4n3)ccnc2[nH]1` [Example 25, (1R,5S,8R)-3-Aza-bicyclo[3.2.1]oct-8-yl-{2-[2-(2-chloro-phenyl)-1H-pyrrolo[2,3-b]pyridin-4-yl]-5-cyclopropyl-pyrido[3,4-d]pyrimidin-4-yl}-amine], for which the IC50 is 100 to 1000 nM. For `c1ncc(-c2cc3c(-c4nc(N5CCNCC5)c5c(C6CCC6)cncc5n4)ccnc3[nH]2)cn1` [Example 131, 5-Cyclobutyl-4-piperazin-1-yl-2-(2-pyrimidin-5-yl-1H-pyrrolo[2,3-b]pyridin-4-yl)-pyrido[3,4-d]pyrimidine], the IC50 is below 100 nM.

For the compound `Fc1cccnc1-c1cc2c(-c3nc(N4CC[C@H]5NCC[C@H]54)c4c(C5CCC5)cncc4n3)ccnc2[nH]1` (racemic) [Example 57, (±)-5-Cyclobutyl-2-[2-(3-fluoro-pyridin-2-yl)-1H-pyrrolo[2,3-b]pyridin-4-yl]-4-(3,6- cis)-hexahydro-pyrrolo[3,2-b]pyrrol-1-yl-pyrido[3,4-d]pyrimidine], the IC50 was below 100 nM.

`Cc1nc(Nc2cc(-c3nc(N[C@@H]4CCNC[C@H]4C)c4c(C5CCC5)cncc4n3)ccn2)ccc1C#N` (racemic) [Example 312, 6-{4-[5-Cyclobutyl-4-(rac-(3R,4R)-3-methyl-piperidin-4-ylamino)-pyrido[3,4-d]pyrimidin-2-yl]-pyridin-2-ylamino}-2-methyl-nicotinonitrile]: the IC50 is below 100 nM. Next, `C[C@@]1(O)CNCC[C@H]1Nc1nc(-c2ccnc3[nH]c4ccccc4c23)nc2cncc(C3CCC3)c12` (racemic) [Example 246]: below 100 nM; `Fc1cccnc1-c1cc2c(-c3nc(N4CCOC5CNCC54)c4c(C5CCC5)cncc4n3)ccnc2[nH]1` (centres unmarked) [Example 259, 5-Cyclobutyl-2-[2-(3-fluoro-pyridin-2-yl)-1H-pyrrolo[2,3-b]pyridin-4-yl]-4-(hexahydro-pyrrolo[3,4-b]-1,4-oxazin-4-yl)-pyrido[3,4-d]pyrimidine]: below 100 nM. In the case of `CC1(C)CNCC[C@H]1Nc1nc(-c2ccnc(Nc3cc4ccccn4n3)c2)nc2cncc(C3CCC3)c12` [Example 379, {5-Cyclobutyl-2-[2-(pyrazolo[1,5-a]pyridin-2-ylamino)-pyridin-4-yl]-pyrido[3,4-d]pyrimidin-4-yl}-((R)-3,3-dimethyl-piperidin-4-yl)-amine], the IC50 was below 100 nM. The result for `O[C@@H]1CNCC[C@H]1Nc1nc(-c2ccnc(Nc3ccc4ccccc4n3)c2)nc2cncc(C3CCC3)c12` (racemic) [Example 273, rac-(3R,4R)-4-{5-Cyclobutyl-2-[2-(quinolin-2-ylamino)-pyridin-4-yl]-pyrido[3,4-d]pyrimidin-4-ylamino}-piperidin-3-ol] reads below 100 nM; that for `Fc1ccc(F)c(Nc2cc(-c3nc(NC4CCCNCC4)c4c(C5CCC5)cncc4n3)ccn2)n1` (centres unmarked) [Example 160, Azepan-4-yl-{5-cyclobutyl-2-[2-(3,6-difluoro-pyridin-2-ylamino)-pyridin-4-yl]-pyrido[3,4-d]pyrimidin-4-yl}-amine], below 100 nM; that for `CC1(C)CNCC[C@@H]1Nc1nc(-c2ccnc(Nc3nc(F)cc(F)c3F)c2)nc2cncc(C3CCC3)c12` [Example 326, 5-Cyclobutyl-N-[(4S)-3,3-dimethyl-4-piperidyl]-2-[2-[(3,4,6-trifluoro-2-pyridyl)amino]-4-pyridyl]pyrido[3,4-d]pyrimidin-4-amine], below 100 nM. For the compound `c1ccc2c(c1)[nH]c1nccc(-c3nc(N4CC[C@@H]5CNC[C@@H]54)c4c(C5CCC5)cncc4n3)c12` [Example 9, 4-((R)-5-Cyclobutyl-4-(R)-hexahydro-pyrrolo[3,4-b]pyrrol-1-yl-pyrido[3,4-d]pyrimidin-2-yl)-9H-pyrido[2,3-b]indole], the IC50 is below 100 nM.
